Patent publication US9801383B2, “Synergistic pesticidal compositions and related methods” (priority 2013, dated 2017)

What was measured:
Assay type in all cases: in vivo
[1] = test system: Western flower thrips, Frankliniella occidentalis; test: Cotton leaf punch dip bioassay against Western flower thrips; conditions: single active
Experimental: (§1) The active compositions were formulated in a 10% acetone solution with 0.025% non-ionic surfactant, TWEEN® 20. Cotton leaf punches were used for bioassays. Two cotton leaf punches were placed in each solution and left there for 10 minutes. Leaves were taken out of the solution, placed on a piece of filter paper in separated Petri dishes, and air dried. Each leaf disc was considered a repetition. Five nymphs of Western flower thrips, Frankliniella occidentalis, were infested per repetition.
as §1, with “compounds” for “compositions”

[2] = test system: brown stink bug, Euschistus heros; test: Bean piece dip bioassay against brown stink bug; conditions: single active
Experimental: (§2) The active compositions were formulated in a 10% acetone solution with 0.025% non-ionic surfactant, TWEEN® 20. Bean pieces (about one inch-long) were used for the tests. Four bean pieces were placed in each tested active solution and left there for 10 minutes. Bean pieces were taken out of the active solution, and each piece was placed in a well in a 32-well tray and allowed to air dry. Three third-instar nymphs of brown stink bug, Euschistus heros, were infested into each well.
A pesticidal composition formulated in a 10% acetone solution with 0.025% non-ionic surfactant, TWEEN® 20 were tested against brown stink bugs, Euschistus heros, according to the procedure described in example 8A.

[3] = test system: diamondback moth, Plutella xylostella; test: Cabbage plant track-sprayer bioassay against diamondback moth; conditions: single active, 0.0025 weight %, second instar
Experimental: A pesticidal composition was prepared by thoroughly mixing about 0.04 weight % of N-(3-chloro-1-(pyridin-3-yl)-1H-pyrazol-4-yl)-N-ethyl-3-((3,3,3-trifluoropropyl)sulfinyl) propanamide (hereinafter “compound II”) with about 0.000156 weight % of chlorpyrifos.
The bioassays were performed for different active compounds. Cabbage plants with about two to three new-growth-true leaf stage were treated with different active compounds using a track sprayer application at 400 L/Ha spray volume. Three second instar diamondback moth, Plutella xylostella, were infested onto each leaf disc. The percent control of the pesticidal composition against diamondback moth, Plutella xylostella, was determined as the “Observed” action, and compared to those obtained by using about 0.0025 weight % of compound II, and using about 0.0025 weight % of chlorpyrifos alone. The “Colby's Expected Action” was calculated using Colby's equation as discussed previously.

[4] = test system: plant bugs, Lygus hesperus; test: Bean piece dip bioassay against Western plant bugs; conditions: single active
Experimental: as §2, with “Western plant bugs, Lygus hesperus,” for “brown stink bug, Euschistus heros,”

[5] = 0.04 weight %, third-instar nymphs

SMILES	% Control Three Days After Treatment ([1]; 0.04 weight %, nymphs)	% Control Four Days After Treatment [2, 5]	% Control Three Days After Treatment ([1]; 0.0000049 weight %)	% Control Three Days After Treatment ([1]; 0.0000049 weight %, listed as chlorpyrifos)	% Control Three Days After Treatment ([1]; 0.0000195 weight %)	% Control Three Days After Treatment ([1]; 0.0003125 weight %)	% Control Three Days After Treatment ([1]; 0.00125 weight %)	% Control Four Days After Treatment ([2]; 0.000156 weight %)	% Control Four Days After Treatment ([2]; 0.000156 weight %, listed as chlorpyrifos)	% Control Four Days After Treatment ([2]; 0.000625 weight %)	% Control Three Days After Treatment [3]	% Control Three Days After Treatment ([3]; listed as chlorpyrifos)	% Control Three Days After Treatment ([4]; 0.0003125 weight %)	% Control Three Days After Treatment ([1]; 0.04 weight %, nymphs, listed as compound II)	% Control Three Days After Treatment [4, 5]
CCN(C(=O)CCSCCC(F)(F)F)c1cn(-c2cccnc2)nc1Cl [Compound I, N-(3-chloro-1-(pyridin-3-yl)-1H-pyrazol-4-yl)-N-ethyl-3-((3,3,3-trifluoropropyl)thio)propanamide]	20%	no activity													
CCOP(=S)(OCC)Oc1nc(Cl)c(Cl)cc1Cl [Chlorpyrifos, O,O-diethyl O-3,5,6-trichloropyridin-2-yl phosphorothioate]			0%	no activity	20%	70%	80%	0%	no activity	92%	0%	substantially no pesticidal activity	50%		
CCN(C(=O)CC[S+]([O-])CCC(F)(F)F)c1cn(-c2cccnc2)nc1Cl (centres unmarked) [Compound II, N-(3-chloro-1-(pyridin-3-yl)-1H-pyrazol-4-yl)-N-ethyl-3-((3,3,3-trifluoropropyl)sulfinyl)propanamide]	0%										substantially no pesticidal activity			no activity	0%
